Test results from patent US8748569B2, “Peptide amphiphiles and methods to electrostatically control bioactivity of the ikvav peptide epitope” (Northwestern University, priority 2011, dated 2014).
Peptide text beside a SMILES is read from it. * marks the point of attachment. Palmitoyl = CCCCCCCCCCCCCCCC(=O)*

Key:
Circular dichroism (CD) = assay type: physicochemical
Experimental: CD was done using a model J-715 Jasco Circular Dichroism Spectrometer. 1 wt % PA solutions were prepared in either a 150 mM NaCl, 3 mM KCl solution or a 150 mM NaCl, 3 mM KCl, and 5 mM CaCl2 solution, both at a pH of 7.2-7.4, as determined via pH paper. The solutions were then heated to 80° C. in a water bath for 1 hr, and then slowly cooled to room temperature over the course of 8 hr. The samples were measured through 0.01 mm quartz plates. Each trace represents the average of three scans. The mean residue ellipticity was corrected for purity of the lyophilized powder from peptide content analysis.

[1] = tested on: P19 embryonal carcinoma cells differentiated into neurons; assay: Neurite outgrowth of neurons cultured in peptide amphiphile gels; assay type: cell-based, murine; conditions: compared to gels of PA 1; for promotion of neurite outgrowth (in words): gels containing 0.2 wt % of the PA with 0.8 wt % PA 1
Experimental: P19 embryonal carcinoma cells were cultured in media composed of α-MEM (Gibco), 7.5% newborn calf serum (Lonza), 2.5% fetal bovine serum (Gibco), penicillin (100 units/ml) and streptomycin (100 ug/ml) (Invitrogen). Neuronal differentiation was induced by plating P19 cells in non-treated Petri dishes in media containing 5 uM retinoic acid (Sigma) for 4 days. Neurospheres were collected from the Petri dish and allowed to settle in a centrifuge tube for 10 minutes. Media was removed, then trypsin/EDTA solution was added and the tube was gently agitated for 5 minutes. Cells were dissociated by triturating the neurospheres, then media was added to inactivate the trypsin. Cells were centrifuged and the pellet resuspended in media to a concentration of 25,000 cells/ul. Cells were mixed (1:4) with PA solution. The PA/cell solution was pipetted into coverslip-bottom culture dishes (MatTek) and covered with gelling solution (150 mM NaCl, 3 mM KCl, 25 mM CaCl2) for 1 minute to induce gelation, then rinsed with a 150 mM NaCl, 3 mM KCl solution, then media was added to the dish. Cells were cultured for 2 days.
In order to assay neurite outgrowth, gels were rinsed with PBS, then fixed in 4% paraformaldehyde for 30 minutes at room temperature. Gels were rinsed 3× with PBS followed by addition of 10% normal goat serum blocking solution (Invitrogen) with 0.1% Triton X-100 added. Gels were incubated overnight with primary antibody (rabbit anti-β-III-tubulin IgG, 1/2000, Covance) in blocking solution. Gels were rinsed 3× with PBS, then blocked for 30 minutes with blocking solution. Next, gels were incubated with secondary antibody (Alexa Fluor 488 goat anti-rabbit IgG, 1/100, Invitrogen) in blocking solution for 1 hour. After one PBS rinse, nuclei were stained with a 5 ug/ml solution of Hoecsht 34580 (Invitrogen) in PBS for 15 minutes, then rinsed 4 times. Gels were imaged on a Zeiss LSM 510 META laser scanning confocal microscope, individually acquiring z-stacks of randomly chosen cells with neurites. Two gels were imaged per condition for each experiment. Experiments were done in triplicate. For each condition, at least 50 neurons with neurites were imaged. Using the Simple Neurite Tracer plug-in for ImageJ software, neurites were traced and measured. A one-way ANOVA, followed by paired t-tests, were performed to determine significance between conditions. Researchers were blinded to the conditions during imaging and tracing.
Pluripotent murine P19 embryonal carcinoma cells were differentiated into neurons. These neurons were then homogeneously distributed into isotonic salt solutions composed of 0.8 wt % PA 1 mixed with 0.2 wt % 2-5 and gelled with 25 mM CaCl2 (FIG. 3a,b). Mixtures of 1 with 2-5 were used in biological experiments in order to form robust gel matrices capable of supporting cells in culture. After two days of culture, the cells were fixed and the neurites and nuclei were fluorescently labelled green and blue using β-III-tubulin immunostaining and Hoechst staining, respectively, then imaged by confocal microscopy (FIG. 14). Neurites were traced and measured, and average neurite lengths were calculated (FIG. 15).

[2] = Small-angle X-ray scattering (SAXS) of PA nanostructures; assay type: physicochemical; conditions: for Total SAXS Cross-section dimensions: diameter
Excerpt: Small-angle X-ray scattering (SAXS) measurements were obtained using a Rigaku S-MAX 3000 High Brilliance SAXS System. Cu Ka radiation was generated by Osmic MicroMaxs, an integrated microfocus sealed tube generator (powered at 45 kV and 0.9 mA) with Osmict Confocal Max-Fluxs optics, 3 pinholes collimation. A 20×20 cm^2 2D position-sensitive wire detector (1024×1024 pixels) was positioned 150 cm behind the examined samples, resulting in a q-range of 0.07-2.8 nm^−1. The wave vector defined as, q=(4π/λ)sin(2θ/2), where 2y is the scattering angle and λ is wavelength of Cu Kα radiation (1.542 Å). A total of 10^6 or more counts were collected in order to obtain a high signal to noise ratio. Samples were measured for 3600 s, and then background subtracted from data collected using a capillary containing the isotonic salt solution. The 2D SAXS patterns were azimuthally averaged and the background subtracted using standard methods. Data analysis was based on fitting the scattering curve to an appropriate model by a least-squares method using software provided by NIST (NIST SANS analysis version 7.0 on IGOR) ^21 The table below lists the models used to fit the SAXS curves. The Total SAXS cross-sectional dimensions correspond to length and width for molecule 2, and diameter for 3-5.

[3] = Transmission electron microscopy (cryoTEM / conventional TEM) of PA nanostructures; assay type: physicochemical
Experimental: The nanostructure of each PA molecule under physiologically relevant conditions was investigated using electron microscopy. Samples for vitreous ice cryo-transmission electron microscopy (cryoTEM) were prepared from a 0.1-0.5 wt % PA solution dissolved in 150 mM NaCl, 3 mM KCl, or in a 150 mM NaCl, 3 mM KCl, and 5 mM CaCl2 solution, both at a pH of 7.2-7.4. The solutions were then heated to 80° C. in a water bath for 1 hr, and then slowly cooled to room temperature over the course of 8 hr. 10 μL of each solution was pipetted onto a plasma cleaned holey carbon TEM grid (Electron Microscopy Sciences), blotted and plunged into liquid ethane using a FEI Vitrobot Mark IV. Samples were kept at −180° C. and imaged using a JEOL 1230 TEM operating at 100 kV.
Samples for conventional TEM microscopy were prepared from 0.1 wt % PA solution dissolved in ultrapure water and adjusted to a pH of 7.2-7.4 by adding NaOH. The solutions were then heated to 80° C. in a water bath for 1 hr, and then slowly cooled to room temperature over the course of 8 hr, unless noted otherwise. 2 μL of a 0.1 wt % PA solution was pipetted onto a Carbon Formvar grid (Electron Microscopy Sciences) and allowed to dry. The samples were then negatively stained by pipetting 2 uL of a 2 wt % Uranyl acetate solution and allowed to dry. Each sample was imaged using a JEOL 1230 TEM operating at 100 kV. The average diameter of nanofibers was obtained via measuring 40-100 different fibers from solutions and grids prepared throughout multiple days.
The assembly of each PA molecule under physiologically relevant conditions was examined using cryogenic electron microscopy (cryoTEM), as described in Example 4. PAs were dissolved in isotonic salt solutions resembling extracellular fluid (150 mM NaCl, 3 mM KCl, pH 7.4). […] In order to compare molecular simulation diameters with those observed from TEM, molecular simulation values for the other four PA molecules were scaled by the same amount, 87%.

Dynamic light scattering = assay type: physicochemical
[4] = Transmission electron microscopy (cryoTEM / conventional TEM) of PA nanostructures; assay type: physicochemical; conditions: 1 wt % solution drop-cast and dried onto a TEM grid
[5] = Solubility in physiologically relevant monovalent salt solution; assay type: physicochemical; conditions: monovalent salt solution composed of 150 mM NaCl and 3 mM KCl
[6] = tested on: P19 embryonal carcinoma cells differentiated into neurons; assay: Neurite outgrowth of neurons cultured in peptide amphiphile gels; assay type: cell-based, murine; conditions: gels containing half the concentration (0.1 wt %) of the PA; compared to gels of PA 1
[7] = (Core) Shell Cylinder SAXS model

CCCCCCCCCCCCCCCC(=O)N[C@H](C(=O)N[C@H](C(=O)N[C@@H](C)C(=O)N[C@@H](C)C(=O)N[C@@H](CCC(=O)O)C(=O)N[C@@H](CCC(=O)O)C(=O)N[C@@H](CCC(=O)O)C(=O)N[C@@H](CCC(=O)O)C(=O)NCC(=O)N[C@H](C(=O)N[C@@H](CCCCN)C(=O)N[C@H](C(=O)N[C@@H](C)C(=O)N[C@H](C(=O)O)C(C)C)C(C)C)[C@@H](C)CC)C(C)C)C(C)C [PA 5, CH3(CH2)14C(O)-VVAAEEEEGIKVAV-OH] (Palmitoyl-VVAAEEEEGIKVAV-OH)
peptide secondary structure from CD spectrum (Circular dichroism (CD); 150 mM NaCl, 3 mM KCl with 5 mM CaCl2 added): presence of β-sheet structure | peptide secondary structure from CD spectrum (Circular dichroism (CD); 1 wt % in 150 mM NaCl, 3 mM KCl): random coil peptide structure | promotion of neurite outgrowth (in words) [1]: promoted neurite outgrowth | promotion of neurite outgrowth (in words) ([1]; listed as SEQ ID NO. 7): promote neurite outgrowth | increase in neurite outgrowth ([1]; gels of 0.8 wt % PA 1 mixed with 0.2 wt % of the PA, gelled with 25 mM CaCl2, 2 days culture): 88±13% | Core Diameter [2, 7]: 1.2 nm | Shell Thickness [2, 7]: 2.0 ± 0.6 nm | Total SAXS Cross-section dimensions [2, 7]: 6.4 ± 1.8 nm | Core Diameter ([2]; (Core) Shell Sphere SAXS model): 1.46 nm | Shell Thickness ([2]; (Core) Shell Sphere SAXS model): 1.4 ± 0.6 nm | Total SAXS Cross-section dimensions ([2]; (Core) Shell Sphere SAXS model): 5.9±1.2 nm | Total SAXS Cross-section dimensions ([2]; (Core) Shell Sphere SAXS model, listed as 5): 5.9±1.2 nm | diameter of cylindrical structures ([3]; cryoTEM, isotonic salt solution with 5 mM CaCl2 added): 9.9±1.1 nm | diameter of spherical micelles ([3]; cryoTEM, without CaCl2): 5.3±1.1 nm | OBSERVED FIBER DIAMETER ([3]; from TEM): 108 ± 15 Å | ASSEMBLED MORPHOLOGY ([3]; observed morphologies from TEM): Cylindrical fiber | hydrodynamic radius of spherical micelles (Dynamic light scattering): 8.6 nm | average diameter of cylindrical nanofibers [4]: 10.8±1.5 nm | solubility [5]: soluble | increase in neurite length [6]: 57±14%
